In ChEMBL document CHEMBL4507324 (2021):

Columns and labels:
Settings in all cases: Compound concentration 100.0 nM
[1] = target: Tyrosine-protein kinase ABL2 (Homo sapiens) (UniProt P42684)
[2] = target: BMP-2-inducible protein kinase (Homo sapiens) (UniProt Q9NSY1)
[3] = system: Serine/threonine-protein kinase B-raf (Homo sapiens), P15056 [V600E]
[4] = target: Protein-tyrosine kinase 6 (Homo sapiens) (UniProt Q13882)
[5] = target: Calcium/calmodulin-dependent protein kinase type 1G (Homo sapiens) (UniProt Q96NX5)
[6] = target: Cyclin-dependent kinase 4 (Homo sapiens) (UniProt P11802)
[7] = target: Cyclin-dependent kinase 5 (Homo sapiens) (UniProt Q00535)
[8] = target: Dual specificity protein kinase CLK3 (Homo sapiens) (UniProt P49761)
[9] = target: Macrophage colony-stimulating factor 1 receptor (Homo sapiens) (UniProt P07333)
[10] = target: Death-associated protein kinase 1 (Homo sapiens) (UniProt P53355)
[11] = target: Serine/threonine-protein kinase 17B (Homo sapiens) (UniProt O94768)
[12] = system: Epidermal growth factor receptor (Homo sapiens), P00533 [UNDEFINED MUTATION]
[13] = system: Epidermal growth factor receptor (Homo sapiens), P00533 [L861Q]
[14] = target: Fibroblast growth factor receptor 4 (Homo sapiens) (UniProt P22455)
[15] = target: Homeodomain-interacting protein kinase 1 (Homo sapiens) (UniProt Q86Z02)
[16] = target: Homeodomain-interacting protein kinase 2 (Homo sapiens) (UniProt Q9H2X6)
[17] = target: Interleukin-1 receptor-associated kinase 1 (Homo sapiens) (UniProt P51617)
[18] = system: Mast/stem cell growth factor receptor Kit (Homo sapiens), P10721 [D816H]
[19] = system: Mast/stem cell growth factor receptor Kit (Homo sapiens), P10721 [V559D,V654A]
[20] = target: Serine/threonine-protein kinase LATS2 (Homo sapiens) (UniProt Q9NRM7)
[21] = target: Tyrosine-protein kinase Lyn (Homo sapiens) (UniProt P07948)
[22] = target: Serine/threonine-protein kinase MAK (Homo sapiens) (UniProt P20794)
[23] = target: Mitogen-activated protein kinase kinase kinase kinase 2 (Homo sapiens) (UniProt Q12851)
[24] = target: Serine/threonine-protein kinase MARK1 (Homo sapiens) (UniProt Q9P0L2)
[25] = target: Dual specificity mitogen-activated protein kinase kinase 3 (Homo sapiens) (UniProt P46734)
[26] = target: Hepatocyte growth factor receptor (Homo sapiens) (UniProt P08581)
[27] = target: Mitogen-activated protein kinase kinase kinase 9 (Homo sapiens) (UniProt P80192)
[28] = target: Macrophage-stimulating protein receptor (Homo sapiens) (UniProt Q04912)
[29] = target: Serine/threonine-protein kinase Nek7 (Homo sapiens) (UniProt Q8TDX7)
[30] = target: Cyclin-dependent kinase 18 (Homo sapiens) (UniProt Q07002)
[31] = target: Phosphorylase b kinase gamma catalytic chain, skeletal muscle/heart isoform (Homo sapiens) (UniProt Q16816)
[32] = system: Phosphatidylinositol 4,5-bisphosphate 3-kinase catalytic subunit alpha isoform (Homo sapiens), P42336 [H1047Y]
[33] = system: Phosphatidylinositol 4,5-bisphosphate 3-kinase catalytic subunit alpha isoform (Homo sapiens), P42336 [I800L]
[34] = target: Phosphatidylinositol 4,5-bisphosphate 3-kinase catalytic subunit delta isoform (Homo sapiens) (UniProt O00329)
[35] = target: cAMP-dependent protein kinase catalytic subunit beta (Homo sapiens) (UniProt P22694)
[36] = target: Membrane-associated tyrosine- and threonine-specific cdc2-inhibitory kinase (Homo sapiens) (UniProt Q99640)
[37] = target: Serine/threonine-protein kinase SIK3 (Homo sapiens) (UniProt Q9Y2K2)
[38] = target: Rho-associated protein kinase 1 (Homo sapiens) (UniProt Q13464)
[39] = target: Ribosomal protein S6 kinase alpha-1 (Homo sapiens) (UniProt Q15418)
[40] = target: Uncharacterized serine/threonine-protein kinase SBK3 (Homo sapiens) (UniProt P0C264)
[41] = target: NUAK family SNF1-like kinase 2 (Homo sapiens) (UniProt Q9H093)
[42] = target: Tyrosine-protein kinase SYK (Homo sapiens) (UniProt P43405)
[43] = target: Dual specificity testis-specific protein kinase 1 (Homo sapiens) (UniProt Q15569)
[44] = target: TGF-beta receptor type-2 (Homo sapiens) (UniProt P37173)
[45] = target: Serine/threonine-protein kinase 32C (Homo sapiens) (UniProt Q86UX6)
Serine/threonine-protein kinase 32C (Homo sapiens), sequence (Q86UX6 whole entry): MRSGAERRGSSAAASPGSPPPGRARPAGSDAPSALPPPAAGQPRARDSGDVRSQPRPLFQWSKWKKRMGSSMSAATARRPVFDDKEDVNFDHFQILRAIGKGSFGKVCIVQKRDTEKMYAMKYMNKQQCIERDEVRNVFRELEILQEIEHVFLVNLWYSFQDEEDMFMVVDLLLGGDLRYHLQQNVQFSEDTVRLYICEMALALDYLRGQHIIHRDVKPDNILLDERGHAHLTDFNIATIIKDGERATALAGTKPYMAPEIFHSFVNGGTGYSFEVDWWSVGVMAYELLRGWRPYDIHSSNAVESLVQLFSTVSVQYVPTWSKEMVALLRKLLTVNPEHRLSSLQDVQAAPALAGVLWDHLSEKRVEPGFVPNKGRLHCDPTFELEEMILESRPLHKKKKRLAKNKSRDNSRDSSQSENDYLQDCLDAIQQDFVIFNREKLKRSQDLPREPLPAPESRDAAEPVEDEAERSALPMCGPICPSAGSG

Dual specificity protein kinase CLK3 (Homo sapiens), sequence (P49761 whole entry, looked up): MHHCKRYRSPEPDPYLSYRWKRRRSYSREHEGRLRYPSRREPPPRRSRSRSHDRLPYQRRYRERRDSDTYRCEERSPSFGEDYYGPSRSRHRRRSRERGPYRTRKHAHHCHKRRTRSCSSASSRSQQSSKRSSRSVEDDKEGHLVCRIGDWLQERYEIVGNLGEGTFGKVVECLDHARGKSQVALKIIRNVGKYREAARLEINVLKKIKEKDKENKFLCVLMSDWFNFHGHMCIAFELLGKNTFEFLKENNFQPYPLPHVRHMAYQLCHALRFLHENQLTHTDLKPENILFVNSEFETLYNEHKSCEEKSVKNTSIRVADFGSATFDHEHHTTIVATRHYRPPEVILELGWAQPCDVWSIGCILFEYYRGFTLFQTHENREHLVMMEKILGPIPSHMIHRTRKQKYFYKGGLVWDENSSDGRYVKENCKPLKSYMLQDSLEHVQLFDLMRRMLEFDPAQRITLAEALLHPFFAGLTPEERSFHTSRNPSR
Interleukin-1 receptor-associated kinase 1 (Homo sapiens), sequence (P51617 whole entry, looked up): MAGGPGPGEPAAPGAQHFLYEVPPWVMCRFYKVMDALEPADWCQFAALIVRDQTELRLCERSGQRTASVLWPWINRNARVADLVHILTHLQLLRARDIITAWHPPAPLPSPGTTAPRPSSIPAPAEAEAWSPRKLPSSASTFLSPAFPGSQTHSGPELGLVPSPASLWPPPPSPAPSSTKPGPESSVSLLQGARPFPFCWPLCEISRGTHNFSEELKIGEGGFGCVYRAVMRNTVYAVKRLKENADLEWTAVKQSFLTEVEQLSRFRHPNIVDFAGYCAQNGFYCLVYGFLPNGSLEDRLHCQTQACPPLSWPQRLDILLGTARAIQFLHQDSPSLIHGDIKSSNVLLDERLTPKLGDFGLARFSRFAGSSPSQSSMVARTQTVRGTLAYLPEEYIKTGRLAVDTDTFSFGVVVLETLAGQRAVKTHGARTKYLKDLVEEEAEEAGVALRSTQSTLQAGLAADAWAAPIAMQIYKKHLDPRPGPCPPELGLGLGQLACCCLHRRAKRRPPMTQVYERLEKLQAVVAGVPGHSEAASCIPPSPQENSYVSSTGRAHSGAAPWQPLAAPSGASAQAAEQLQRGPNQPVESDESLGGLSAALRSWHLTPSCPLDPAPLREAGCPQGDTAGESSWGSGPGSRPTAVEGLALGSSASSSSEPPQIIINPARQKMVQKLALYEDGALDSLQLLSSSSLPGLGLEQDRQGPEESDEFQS
Hepatocyte growth factor receptor (Homo sapiens), sequence (P08581 whole entry): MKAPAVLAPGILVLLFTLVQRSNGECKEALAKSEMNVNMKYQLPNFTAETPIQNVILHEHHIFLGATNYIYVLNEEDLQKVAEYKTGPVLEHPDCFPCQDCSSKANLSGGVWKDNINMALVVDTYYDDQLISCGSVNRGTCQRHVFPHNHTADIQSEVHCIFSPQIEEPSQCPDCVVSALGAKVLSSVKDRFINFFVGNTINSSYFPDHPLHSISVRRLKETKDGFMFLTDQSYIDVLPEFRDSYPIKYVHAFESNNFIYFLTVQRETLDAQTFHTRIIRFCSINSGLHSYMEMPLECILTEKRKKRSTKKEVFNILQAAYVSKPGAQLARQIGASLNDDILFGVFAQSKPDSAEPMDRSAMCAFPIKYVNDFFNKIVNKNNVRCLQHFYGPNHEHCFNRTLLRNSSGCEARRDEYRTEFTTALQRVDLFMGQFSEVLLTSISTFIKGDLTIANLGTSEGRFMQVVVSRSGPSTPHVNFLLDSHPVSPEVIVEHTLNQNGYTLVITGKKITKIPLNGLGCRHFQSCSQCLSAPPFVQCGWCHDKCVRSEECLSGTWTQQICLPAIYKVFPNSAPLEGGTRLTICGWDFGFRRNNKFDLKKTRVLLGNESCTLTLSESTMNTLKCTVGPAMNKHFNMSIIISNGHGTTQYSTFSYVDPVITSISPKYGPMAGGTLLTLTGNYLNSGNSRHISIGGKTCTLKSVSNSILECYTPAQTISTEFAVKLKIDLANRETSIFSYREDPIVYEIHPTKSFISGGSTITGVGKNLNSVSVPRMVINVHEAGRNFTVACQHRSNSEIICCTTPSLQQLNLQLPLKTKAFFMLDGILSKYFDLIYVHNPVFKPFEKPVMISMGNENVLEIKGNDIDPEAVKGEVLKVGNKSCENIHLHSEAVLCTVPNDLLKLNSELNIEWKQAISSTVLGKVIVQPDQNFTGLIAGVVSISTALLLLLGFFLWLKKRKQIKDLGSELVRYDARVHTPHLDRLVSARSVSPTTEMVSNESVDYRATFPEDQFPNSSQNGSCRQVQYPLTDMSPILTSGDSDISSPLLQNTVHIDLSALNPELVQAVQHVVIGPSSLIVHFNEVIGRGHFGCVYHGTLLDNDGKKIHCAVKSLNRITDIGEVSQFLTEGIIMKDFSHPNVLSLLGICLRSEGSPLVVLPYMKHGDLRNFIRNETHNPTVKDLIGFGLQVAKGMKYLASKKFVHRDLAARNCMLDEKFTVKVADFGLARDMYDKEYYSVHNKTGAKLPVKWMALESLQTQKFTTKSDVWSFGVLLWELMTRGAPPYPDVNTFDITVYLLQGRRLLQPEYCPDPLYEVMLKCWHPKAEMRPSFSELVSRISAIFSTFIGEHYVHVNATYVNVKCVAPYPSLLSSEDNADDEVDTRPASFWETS
Phosphatidylinositol 4,5-bisphosphate 3-kinase catalytic subunit alpha isoform (Homo sapiens), P42336 [H1047Y], sequence (P42336 whole entry H1047Y, canonical isoform): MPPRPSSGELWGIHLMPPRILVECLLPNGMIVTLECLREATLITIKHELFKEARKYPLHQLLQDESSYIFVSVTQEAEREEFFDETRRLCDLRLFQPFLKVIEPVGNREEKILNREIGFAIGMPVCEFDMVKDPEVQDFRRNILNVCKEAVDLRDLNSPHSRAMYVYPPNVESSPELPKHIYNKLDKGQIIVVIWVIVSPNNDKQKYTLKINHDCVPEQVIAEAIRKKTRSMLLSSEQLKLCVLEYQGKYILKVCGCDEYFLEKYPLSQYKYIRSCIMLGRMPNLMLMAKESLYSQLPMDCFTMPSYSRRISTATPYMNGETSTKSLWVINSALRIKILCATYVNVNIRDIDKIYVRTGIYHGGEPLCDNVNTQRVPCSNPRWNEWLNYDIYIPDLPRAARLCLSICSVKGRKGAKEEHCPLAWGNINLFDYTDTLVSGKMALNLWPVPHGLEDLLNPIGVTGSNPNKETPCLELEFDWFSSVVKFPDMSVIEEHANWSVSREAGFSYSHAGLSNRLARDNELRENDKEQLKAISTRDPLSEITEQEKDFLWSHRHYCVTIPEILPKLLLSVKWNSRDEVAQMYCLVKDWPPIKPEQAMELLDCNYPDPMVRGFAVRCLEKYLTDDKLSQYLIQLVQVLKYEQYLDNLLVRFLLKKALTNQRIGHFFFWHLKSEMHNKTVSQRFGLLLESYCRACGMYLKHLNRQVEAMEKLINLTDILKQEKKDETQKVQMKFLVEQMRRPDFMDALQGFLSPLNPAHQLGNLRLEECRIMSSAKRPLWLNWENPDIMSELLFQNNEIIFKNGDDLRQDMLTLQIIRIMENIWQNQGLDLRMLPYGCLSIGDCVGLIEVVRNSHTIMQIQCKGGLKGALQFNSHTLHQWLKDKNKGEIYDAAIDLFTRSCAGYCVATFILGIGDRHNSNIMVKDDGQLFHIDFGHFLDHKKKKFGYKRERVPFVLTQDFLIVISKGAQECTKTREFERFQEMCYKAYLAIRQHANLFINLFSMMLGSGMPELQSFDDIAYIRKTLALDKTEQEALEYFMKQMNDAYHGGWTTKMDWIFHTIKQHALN
NUAK family SNF1-like kinase 2 (Homo sapiens), sequence (Q9H093 whole entry): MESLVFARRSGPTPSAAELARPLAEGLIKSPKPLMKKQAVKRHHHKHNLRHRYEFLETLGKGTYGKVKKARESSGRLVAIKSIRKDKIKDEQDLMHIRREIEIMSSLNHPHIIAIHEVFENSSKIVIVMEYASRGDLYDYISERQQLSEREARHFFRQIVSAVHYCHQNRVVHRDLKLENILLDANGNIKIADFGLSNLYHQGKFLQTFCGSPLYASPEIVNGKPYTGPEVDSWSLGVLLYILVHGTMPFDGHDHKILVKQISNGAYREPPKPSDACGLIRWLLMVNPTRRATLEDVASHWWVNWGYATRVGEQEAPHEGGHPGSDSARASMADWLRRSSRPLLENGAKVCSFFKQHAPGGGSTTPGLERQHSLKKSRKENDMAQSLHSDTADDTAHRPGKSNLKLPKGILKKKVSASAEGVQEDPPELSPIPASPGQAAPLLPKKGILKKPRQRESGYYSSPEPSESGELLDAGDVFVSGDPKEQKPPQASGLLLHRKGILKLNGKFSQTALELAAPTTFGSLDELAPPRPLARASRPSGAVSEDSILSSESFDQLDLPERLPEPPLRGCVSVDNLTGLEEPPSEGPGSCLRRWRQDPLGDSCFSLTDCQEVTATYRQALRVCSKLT
Cyclin-dependent kinase 4 (Homo sapiens), sequence (P11802 whole entry): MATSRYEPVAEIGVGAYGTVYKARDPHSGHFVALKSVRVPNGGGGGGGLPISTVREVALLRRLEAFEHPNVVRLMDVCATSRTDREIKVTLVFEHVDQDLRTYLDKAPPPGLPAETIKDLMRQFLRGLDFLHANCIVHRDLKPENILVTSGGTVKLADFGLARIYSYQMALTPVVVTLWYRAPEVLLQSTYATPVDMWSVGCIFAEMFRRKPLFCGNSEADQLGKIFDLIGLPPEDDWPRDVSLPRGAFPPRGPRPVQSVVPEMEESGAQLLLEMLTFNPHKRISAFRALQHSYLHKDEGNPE

Compound: CS(=O)(=O)N1CCCC(NC(=O)[C@H](CCC2CCCCC2)NC(=O)c2ccc(CNc3ncnc4c3nnn4-c3ccccc3)cc2)C1 (stereo not given in full) [SR-301]
- residual activity [1]: 100%
- residual activity [2]: 84%
- residual activity [3]: 100%
- residual activity [4]: 76%
- residual activity [5]: 92%
- residual activity [6]: 100%
- residual activity [7]: 94%
- residual activity [8]: 85%
- residual activity [9]: 100%
- residual activity [10]: 92%
- residual activity [11]: 100%
- residual activity [12]: 94%
- residual activity [13]: 100%
- residual activity [14]: 100%
- residual activity [15]: 100%
- residual activity [16]: 100%
- residual activity [17]: 100%
- residual activity [18]: 68%
- residual activity [19]: 100%
- residual activity [20]: 100%
- residual activity [21]: 96%
- residual activity [22]: 100%
- residual activity [23]: 100%
- residual activity [24]: 74%
- residual activity [25]: 85%
- residual activity [26]: 68%
- residual activity [27]: 90%
- residual activity [28]: 97%
- residual activity [29]: 88%
- residual activity [30]: 100%
- residual activity [31]: 87%
- residual activity [32]: 100%
- residual activity [33]: 44%
- residual activity [34]: 91%
- residual activity [35]: 92%
- residual activity [36]: 74%
- residual activity [37]: 78%
- residual activity [38]: 93%
- residual activity [39]: 100%
- residual activity [40]: 100%
- residual activity [41]: 100%
- residual activity [42]: 88%
- residual activity [43]: 100%
- residual activity [44]: 93%
- residual activity [45]: 100%

Compound: CS(=O)(=O)N1CCCC(NC(=O)[C@H](CCC2CCCCC2)NC(=O)c2ccc(CNC(=O)c3cnc4ccccn34)cc2)C1 (stereo not given in full) [SR-302]
- residual activity [1]: 56%
- residual activity [2]: 92%
- residual activity [3]: 51%
- residual activity [4]: 81%
- residual activity [5]: 84%
- residual activity [6]: 100%
- residual activity [7]: 100%
- residual activity [8]: 100%
- residual activity [9]: 100%
- residual activity [10]: 88%
- residual activity [11]: 83%
- residual activity [12]: 100%
- residual activity [13]: 100%
- residual activity [14]: 100%
- residual activity [15]: 100%
- residual activity [16]: 100%
- residual activity [17]: 100%
- residual activity [18]: 44%
- residual activity [19]: 100%
- residual activity [20]: 76%
- residual activity [21]: 100%
- residual activity [22]: 100%
- residual activity [23]: 92%
- residual activity [24]: 100%
- residual activity [25]: 100%
- residual activity [26]: 62%
- residual activity [27]: 65%
- residual activity [28]: 100%
- residual activity [29]: 100%
- residual activity [30]: 100%
- residual activity [31]: 68%
- residual activity [32]: 84%
- residual activity [33]: 100%
- residual activity [34]: 67%
- residual activity [35]: 100%
- residual activity [36]: 100%
- residual activity [37]: 100%
- residual activity [38]: 100%
- residual activity [39]: 74%
- residual activity [40]: 66%
- residual activity [41]: 100%
- residual activity [42]: 93%
- residual activity [43]: 93%
- residual activity [44]: 91%
- residual activity [45]: 85%
